Patent US7138361B2, “Herbicidal heterocycles” (E. I. du Pont de Nemours and Company, priority 2000, dated 2006)

Experiments:
Type in all cases: in vivo
[1] = tested on: velvetleaf (Abutilon theophrasti); assay: Test B preemergence
Method in brief: (§1)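 Greenhouse test: chemicals are formulated in a surfactant-containing non-phytotoxic solvent and applied either preemergence to planted seeds or postemergence to plants 2 to 18 cm tall. Response is rated visually versus controls after 13 to 15 days, 0 meaning no effect and 100 complete control.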

rice (Oryza saliva) = assay: Test B preemergence
Method in brief: as §1

[2] = tested on: lambsquarters (Chenopodium album); assay: Test B preemergence
Method in brief: as §1

[3] = tested on: barnyardgrass (Echinochloa crus-galli); assay: Test B preemergence
Method in brief: as §1

[4] = tested on: pigweed (Amaranthus retroflexus); assay: Test B preemergence
Method in brief: as §1

[5] = tested on: morning glory (Ipomoea hederacea); assay: Test B preemergence
Method in brief: as §1

[6] = tested on: cocklebur (Xanthium strumarium); assay: Test B preemergence
Method in brief: as §1

[7] = tested on: crabgrass (Digitaria sanguinalis); assay: Test B preemergence
Method in brief: as §1

corn (Zea mays) [8] = assay: Test B preemergence
Method in brief: as §1

[9] = tested on: Surinam grass (Brachiaria decumbens); assay: Test B preemergence
Method in brief: as §1

[10] = tested on: giant foxtail (Setaria faberii); assay: Test B preemergence
Method in brief: as §1

[11] = tested on: barnyardgrass (Echinochloa crus-galli); assay: Test C flooded paddy test; settings: for Barnyardgrass plant response rating: Flooded Paddy, scale 0 to 100, 0 no effect, 100 complete control; for Plant response rating, Barnyardgrass / Plant response rating (scale 0 to 100), Barnyardgrass: flooded paddy test; for Plant response rating, Barnyardgrass: scale 0 to 100 (0 no effect, 100 complete control); for Plant response rating (scale 0 to 100), Barnyardgrass: visually evaluated after 12 to 14 days, 0 = no effect, 100 = complete control
Method in brief: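 Flooded paddy, 2-leaf stage at treatment. Readout: visual % control vs untreated, 0–100, at 12–14 d in greenhouse.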

[12] = tested on: velvetleaf (Abutilon theophrasti); assay: Test B postemergence
Method in brief: as §1

wild oat (Avena fatua) = assay: Test B postemergence
Method in brief: as §1

[13] = tested on: blackgrass (Alopecurus myosuroides); assay: Test B postemergence
Method in brief: as §1

[14] = tested on: lambsquarters (Chenopodium album); assay: Test B postemergence
Method in brief: as §1

[15] = tested on: barnyardgrass (Echinochloa crus-galli); assay: Test B postemergence
Method in brief: as §1

[16] = tested on: pigweed (Amaranthus retroflexus); assay: Test B postemergence
Method in brief: as §1

[17] = tested on: morning glory (Ipomoea hederacea); assay: Test B postemergence
Method in brief: as §1

[18] = tested on: cocklebur (Xanthium strumarium); assay: Test B postemergence
Method in brief: as §1

[19] = tested on: crabgrass (Digitaria sanguinalis); assay: Test B postemergence
Method in brief: as §1

corn (Zea mays) [20] = assay: Test B postemergence
Method in brief: as §1

[21] = tested on: wheat (Triticum aestivum); assay: Test B postemergence
Method in brief: as §1

[22] = tested on: Surinam grass (Brachiaria decumbens); assay: Test B postemergence
Method in brief: as §1

[23] = tested on: giant foxtail (Setaria faberii); assay: Test B postemergence
Method in brief: as §1

Sunflower [24] = assay: Test C preemergence; settings: Rate 250 g/ha, visual evaluation after 12 to 14 days
Sunflower [25] = assay: Test C preemergence; settings: scale 0 to 100
[26] = Preemergence, Rate 500 g/ha, scale 0 to 100, 0 no effect, 100 complete control
[27] = preemergence, Rate 125 g/ha, scale 0 to 100, 0 no effect, 100 complete control
[28] = Rate 125 g/ha, scale 0 (no effect) to 100 (complete control), 13 to 15 days
[29] = Rate 500 g/ha, scale 0 to 100, 0 is no effect, 100 is complete control, 13 to 15 days
[30] = preemergence, Rate 125 g/ha, scale of 0 to 100 where 0 is no effect and 100 is complete control, 13 to 15 days
[31] = Rate 125 g/ha, scale 0 to 100, 0 no effect, 100 complete control
[32] = Rate 500 g/ha, scale 0 (no effect) to 100 (complete control), 13 to 15 days

SMILES: CC(C)(C)c1ccn(C2CCN(c3cccc(C(F)(F)F)c3)C2=S)n1 (stereo not shown) [Compound 22]
- Plant response rating, Velvetleaf [1, 26]: 0
- Plant response rating, Velvetleaf [1, 27]: 0
- Plant response rating, Rice (rice (Oryza saliva); [26]): 0
- Plant response rating, Rice (rice (Oryza saliva); [27]): 0
- Plant response rating, Lambsquarters [2, 26]: 100
- Plant response rating, Lambsquarters [2, 27]: 100
- Plant response rating, Barnyardgrass [3, 26]: 80
- Plant response rating, Barnyardgrass [3, 27]: 0
- Plant response rating, Pigweed [4, 26]: 100
- Plant response rating, Pigweed [4, 27]: 90
- Plant response rating, Morningglory [5, 26]: 0
- Plant response rating, Morningglory [5, 27]: 0
- Plant response rating, Cocklebur [6, 26]: 0
- Plant response rating, Cocklebur [6, 27]: 0
- Plant response rating, Crabgrass [7, 26]: 100
- Plant response rating, Crabgrass [7, 27]: 0
- Plant response rating, Corn (corn (Zea mays) [8]; [26]): 0
- Plant response rating, Corn (corn (Zea mays) [8]; [27]): 0
- Plant response rating, Surinam grass [9, 26]: 50
- Plant response rating, Surinam grass [9, 27]: 30
- Plant response rating, Foxtail, Giant [10, 26]: 100
- Plant response rating, Foxtail, Giant [10, 27]: 30
- Barnyardgrass plant response rating ([11]; Rate 250 g/ha): 100
- Barnyardgrass plant response rating ([11]; Rate 500 g/ha): 100
- Plant response rating, Barnyardgrass ([11]; Rate 62 g/ha): 40
- Plant response rating, Barnyardgrass ([11]; Rate 125 g/ha): 80
- Plant response rating, Velvetleaf [12, 28]: 20
- Plant response rating, Velvetleaf [12, 29]: 30
- Plant response rating, Wild Oat (wild oat (Avena fatua); [28]): 0
- Plant response rating, Wild Oat (wild oat (Avena fatua); [29]): 0
- Plant response rating, Blackgrass [13, 28]: 0
- Plant response rating, Blackgrass [13, 29]: 0
- Plant response rating, Lambsquarters [14, 28]: 90
- Plant response rating, Lambsquarters [14, 29]: 90
- Plant response rating, Barnyardgrass [15, 28]: 0
- Plant response rating, Barnyardgrass [15, 29]: 80
- Plant response rating, Pigweed [16, 28]: 80
- Plant response rating, Pigweed [16, 29]: 90
- Plant response rating, Morningglory [17, 28]: 30
- Plant response rating, Morningglory [17, 29]: 30
- Plant response rating, Cocklebur [18, 28]: 20
- Plant response rating, Cocklebur [18, 29]: 20
- Plant response rating, Crabgrass [19, 28]: 40
- Plant response rating, Crabgrass [19, 29]: 40
- Plant response rating, Corn (corn (Zea mays) [20]; [28]): 0
- Plant response rating, Corn (corn (Zea mays) [20]; [29]): 0
- Plant response rating, Wheat [21, 28]: 0
- Plant response rating, Wheat [21, 29]: 0
- Plant response rating, Surinam grass [22, 29]: 20
- Plant response rating, Foxtail, Giant [23, 28]: 0
- Plant response rating, Foxtail, Giant [23, 29]: 0
- Plant response rating (0 to 100), Sunflower (Sunflower [24]): 0

SMILES: CCCC(C)c1ccn(C2OCN(c3cccc(OC(F)F)c3)C2=O)n1 (stereo not shown) [Compound 132]
- Plant response rating, Velvetleaf [1, 26]: 30
- Plant response rating, Velvetleaf [1, 30]: 0
- Plant response rating, Rice (rice (Oryza saliva); [26]): 50
- Plant response rating, Rice (rice (Oryza saliva); [30]): 0
- Plant response rating, Lambsquarters [2, 26]: 100
- Plant response rating, Lambsquarters [2, 30]: 100
- Plant response rating, Barnyardgrass [3, 26]: 100
- Plant response rating, Barnyardgrass [3, 30]: 100
- Plant response rating, Pigweed [4, 26]: 100
- Plant response rating, Pigweed [4, 30]: 70
- Plant response rating, Morningglory [5, 26]: 0
- Plant response rating, Morningglory [5, 30]: 0
- Plant response rating, Cocklebur [6, 26]: 30
- Plant response rating, Cocklebur [6, 30]: 0
- Plant response rating, Crabgrass [7, 26]: 100
- Plant response rating, Crabgrass [7, 30]: 100
- Plant response rating, Corn (corn (Zea mays) [8]; [26]): 0
- Plant response rating, Corn (corn (Zea mays) [8]; [30]): 0
- Plant response rating, Surinam grass [9, 26]: 100
- Plant response rating, Surinam grass [9, 30]: 80
- Plant response rating, Foxtail, Giant [10, 26]: 100
- Plant response rating, Foxtail, Giant [10, 30]: 100
- Barnyardgrass plant response rating ([11]; Rate 500 g/ha): 100
- Plant response rating, Barnyardgrass ([11]; Rate 125 g/ha): 70
- Plant response rating, Barnyardgrass ([11]; Rate 250 g/ha): 100
- Plant response rating (scale 0 to 100), Barnyardgrass ([11]; Rate 62 g/ha): 40
- Plant response rating, Sunflower (Sunflower [25]; Rate 62 g/ha): 0
- Plant response rating, Velvetleaf [12, 31]: 0
- Plant response rating, Wild Oat (wild oat (Avena fatua); [31]): 0
- Plant response rating, Blackgrass [13, 31]: 0
- Plant response rating, Blackgrass [13, 29]: 0
- Plant response rating, Lambsquarters [14, 31]: 70
- Plant response rating, Barnyardgrass [15, 31]: 0
- Plant response rating, Barnyardgrass [15, 29]: 30
- Plant response rating, Pigweed [16, 31]: 0
- Plant response rating, Morningglory [17, 31]: 0
- Plant response rating, Cocklebur [18, 31]: 0
- Plant response rating, Cocklebur [18, 29]: 0
- Plant response rating, Crabgrass [19, 31]: 0
- Plant response rating, Corn (corn (Zea mays) [20]; [31]): 0
- Plant response rating, Corn (corn (Zea mays) [20]; [29]): 0
- Plant response rating, Wheat [21, 31]: 0
- Plant response rating, Surinam grass [22, 31]: 0
- Plant response rating, Surinam grass [22, 29]: 0
- Plant response rating, Foxtail, Giant [23, 31]: 0

SMILES: Cc1cc(C)nc(N2CCC(n3ccc(C(C)(C)C)n3)C2=O)c1 (stereo not shown) [Compound 138]
- Plant response rating, Velvetleaf [1, 26]: 0
- Plant response rating, Velvetleaf [1, 30]: 0
- Plant response rating, Rice (rice (Oryza saliva); [26]): 100
- Plant response rating, Rice (rice (Oryza saliva); [30]): 0
- Plant response rating, Lambsquarters [2, 26]: 100
- Plant response rating, Lambsquarters [2, 30]: 100
- Plant response rating, Barnyardgrass [3, 26]: 100
- Plant response rating, Barnyardgrass [3, 30]: 0
- Plant response rating, Pigweed [4, 26]: 100
- Plant response rating, Pigweed [4, 30]: 100
- Plant response rating, Morningglory [5, 26]: 100
- Plant response rating, Morningglory [5, 30]: 90
- Plant response rating, Cocklebur [6, 26]: 100
- Plant response rating, Cocklebur [6, 30]: 0
- Plant response rating, Crabgrass [7, 26]: 100
- Plant response rating, Crabgrass [7, 30]: 100
- Plant response rating, Corn (corn (Zea mays) [8]; [26]): 20
- Plant response rating, Corn (corn (Zea mays) [8]; [30]): 0
- Plant response rating, Surinam grass [9, 26]: 100
- Plant response rating, Surinam grass [9, 30]: 70
- Plant response rating, Foxtail, Giant [10, 26]: 100
- Plant response rating, Foxtail, Giant [10, 30]: 80
- Barnyardgrass plant response rating ([11]; Rate 500 g/ha): 100
- Plant response rating, Barnyardgrass ([11]; Rate 125 g/ha): 40
- Plant response rating, Barnyardgrass ([11]; Rate 250 g/ha): 100
- Plant response rating (scale 0 to 100), Barnyardgrass ([11]; Rate 62 g/ha): 0
- Plant response rating, Sunflower (Sunflower [25]; Rate 31 g/ha): 0
- Plant response rating, Sunflower (Sunflower [25]; Rate 62 g/ha): 0
- Plant response rating, Velvetleaf [12, 31]: 0
- Plant response rating, Velvetleaf [12, 32]: 0
- Plant response rating, Wild Oat (wild oat (Avena fatua); [31]): 0
- Plant response rating, Wild Oat (wild oat (Avena fatua); [32]): 0
- Plant response rating, Blackgrass [13, 31]: 0
- Plant response rating, Blackgrass [13, 32]: 0
- Plant response rating, Lambsquarters [14, 31]: 0
- Plant response rating, Lambsquarters [14, 32]: 0
- Plant response rating, Barnyardgrass [15, 31]: 0
- Plant response rating, Barnyardgrass [15, 32]: 0
- Plant response rating, Pigweed [16, 31]: 0
- Plant response rating, Pigweed [16, 32]: 30
- Plant response rating, Morningglory [17, 31]: 10
- Plant response rating, Morningglory [17, 32]: 30
- Plant response rating, Cocklebur [18, 31]: 0
- Plant response rating, Cocklebur [18, 32]: 0
- Plant response rating, Crabgrass [19, 31]: 0
- Plant response rating, Crabgrass [19, 32]: 0
- Plant response rating, Corn (corn (Zea mays) [20]; [31]): 0
- Plant response rating, Corn (corn (Zea mays) [20]; [32]): 0
- Plant response rating, Wheat [21, 31]: 0
- Plant response rating, Wheat [21, 32]: 0
- Plant response rating, Surinam grass [22, 31]: 0
- Plant response rating, Surinam grass [22, 32]: 0
- Plant response rating, Foxtail, Giant [23, 31]: 0
- Plant response rating, Foxtail, Giant [23, 32]: 0
